According to patent publication US11225642B2, “Method for producing renal progenitor cells” (KYOTO UNIVERSITY, priority 2013, dated 2022):

Experiments:
[1] = system: OSR1-GFP & SIX2-tdTomato reporter human iPS cell line; assay: SIX2-positive cell induction method 2, SIX2-tdTomato-positive cell rate by flow cytometer; format: cell-based; conditions: stage 3 medium with 5 ng/ml TGFβ1 and 0.5 μM Dorsomorphin, 12 to 22 days
Experimental: The OSR1-GFP & SIX2-tdTomato reporter human iPS cell line obtained by the method in Example 1 was cultured in the manner described in stage 1 of induction method 1 to become confluent on 10-cm dishes using SNL cells as feeder cells. A CTK solution was added to dissociate the cells. After removal of the feeder cells, the dissociated cells were suspended in a DMEM/F12 medium containing 1 μM TTNPB (Sigma, T3757), 1 μM CHIR99021, 1% GlutaMAX (100×), 2% FBS, and 0.5% PenStrep. Then, the cell suspensions were transferred to a low cell binding plate (LOW CELL BIND 6 WELL DISH) such that each well contained one-third to one-sixth of the cell suspension obtained from the 10-cm dish, followed by suspension culture at 37° C. in a 5% CO2 atmosphere for 2 days.
(§1) The cell mass obtained at stage 1 was transferred to dishes coated with Matrigel or dishes coated with Synthemax (prepared in the manner described in stage 2 of induction method 1). The medium was exchanged with a DMEM/F12 medium containing 1 μM TTNPB, 0.1% 2-mercaptoethanol (1000×), 1% GlutaMAX (100×), 10% KnockOut SR, 0.1 mM MEM NEAA, and 0.5% PenStrep, followed by adhesion culture at 37° C. in a 5% CO2 atmosphere for 3 to 9 days. In this case, the medium was exchanged every 3 days with a medium having the same conditions.
The medium was removed from the cells obtained at stage 2. […]

[2] = system: OSR1-positive cells sorted from OSR1-GFP & SIX2-tdTomato reporter human iPS cell line; assay: SIX2-positive cell induction method 3, SIX2-tdTomato-positive cell rate by flow cytometer; format: cell-based; conditions: stage 3 medium with 5 ng/ml TGFβ1 and 0.5 μM Dorsomorphin
Experimental: The OSR1-GFP & SIX2-tdTomato reporter human iPS cell line obtained by the method in Example 1 was cultured in the manner described in stage 1 of induction method 1 to become confluent in 10-cm dishes using SNL cells as feeder cells. A CTK solution was added to dissociate the cells. After removal of the feeder cells, Accutase™ (Innovative Cell Technologies, AT-104) was added to disperse iPS cells to result in single cells. Then, the obtained cells were suspended in a DMEM/F12 medium containing 10 μM Y-27632 (Wako, 253-00513), 1 μM CHIR99021, 1 μM TTNPB, 1% GlutaMAX (100×), 2% FBS, and 0.5% PenStrep. The obtained cell suspensions (1×10^5 cells/well (for a 96-well dish)) were transferred to a dish coated with 0.1% gelatin (Gelatin from porcine skin, Type A (Sigma, G1890)), followed by adhesion culture at 37° C. in a 5% CO2 atmosphere for 2 days.
as §1, with “cells” for “cell mass”, “were washed” for “was transferred to dishes coated”, “PBS.” for “Matrigel or dishes coated with Synthemax (prepared in the manner described in stage 2 of induction method 1).”
Accutase™ was added to cells obtained at stage 2 to dissociate the cells. […]

| Compound | SIX2-tdTomato-positive cell rate [1] | SIX2-tdTomato-positive cell rate [2] |
| --- | --- | --- |
| c1cc(-c2cnn3cc(-c4ccc(OCCN5CCCCC5)cc4)cnc23)ccn1 [Dorsomorphin, 6-[4-(2-piperidin-1-yl-ethoxy)phenyl]-3-pyridin-4-yl-pyrazolo[1,5-a]pyrimidine] | 20.6±5.3% | 31.1±10.0% |
| TGFβ1: TGFβ signaling activator protein (Peprotech) | 20.6±5.3% | 31.1±10.0% |
